Results: the CheMixHub viscosity set

Assay: xn = mol fraction of the nth substance listed

O=C1CCCO1 + COC(=O)OC
viscosity [mPa·s]
Details	293.15 K	298.15 K	303.15 K	308.15 K	313.15 K	318.15 K	323.15 K
101 kPa, x2 = 0.1013	1.635	1.52	1.413	1.316	1.231	1.154	1.083
101 kPa, x2 = 0.2013	1.437	1.331	1.237	1.154	1.08	1.013	0.953
101 kPa, x2 = 0.3001	1.277	1.186	1.104	1.033	0.968	0.91	0.857
101 kPa, x2 = 0.4006	1.138	1.058	0.987	0.923	0.867	0.816	0.77
101 kPa, x2 = 0.5	1.018	0.95	0.889	0.836	0.786	0.742	0.701
101 kPa, x2 = 0.5986	0.918	0.856	0.802	0.753	0.709	0.669	0.634
101 kPa, x2 = 0.6999	0.83	0.776	0.728	0.685	0.647	0.612	0.58
101 kPa, x2 = 0.7989	0.75	0.702	0.659	0.62	0.585	0.553	0.524
101 kPa, x2 = 0.8995	0.685	0.644	0.605	0.57	0.538	0.51	0.483
101.3 kPa, x2 = 0.1282	–	1.22	–	–	–	–	–
101.3 kPa, x2 = 0.1724	–	1.14	–	–	–	–	–
101.3 kPa, x2 = 0.2631	–	0.99	–	–	–	–	–
101.3 kPa, x2 = 0.4545	–	0.85	–	–	–	–	–
101.3 kPa, x2 = 0.5555	–	0.83	–	–	–	–	–
101.3 kPa, x2 = 0.6603	–	0.76	–	–	–	–	–
101.3 kPa, x2 = 0.7792	–	0.78	–	–	–	–	–
101.3 kPa, x2 = 0.8823	–	0.67	–	–	–	–	–

Brc1ccccc1 + C1CCOC1
viscosity [mPa·s], 101 kPa
Details	x2 = 0.1051	x2 = 0.2012	x2 = 0.3022	x2 = 0.4031	x2 = 0.4987
298.15 K	1.014	0.9619	0.9067	0.8488	0.7916
313.15 K	0.8409	0.8	0.7551	0.7079	0.6622

O=C1CCCO1 + CCOC(C)=O
298.15 K, 101.33 kPa
Details	viscosity [mPa·s]
x2 = 0.0501	1.575
x2 = 0.1023	1.453
x2 = 0.1528	1.345
x2 = 0.2005	1.249
x2 = 0.2542	1.152
x2 = 0.3039	1.071
x2 = 0.4046	0.926
x2 = 0.4546	0.864
x2 = 0.5006	0.81
x2 = 0.5528	0.755
x2 = 0.6019	0.707
x2 = 0.6994	0.622
x2 = 0.75	0.583
x2 = 0.7981	0.547
x2 = 0.849	0.513
x2 = 0.902	0.481
x2 = 0.9504	0.45

Brc1ccccc1 + CCCCOC(C)=O
viscosity [mPa·s], 101 kPa
Details	298.15 K	308.15 K
x2 = 0.0489	0.919	0.88
x2 = 0.1488	0.737	0.746
x2 = 0.2514	0.615	0.649
x2 = 0.3499	0.54	0.584
x2 = 0.4493	0.495	0.541
x2 = 0.4965	0.482	0.526
x2 = 0.5512	0.474	0.515
x2 = 0.6501	0.474	0.505
x2 = 0.7497	0.496	0.51
x2 = 0.8499	0.542	0.53
x2 = 0.9226	0.595	0.556

Brc1ccccc1 + COc1ccccc1
viscosity [mPa·s], 101 kPa
Details	x2 = 0.0996	x2 = 0.1949	x2 = 0.2927	x2 = 0.3925	x2 = 0.4935	x2 = 0.5913	x2 = 0.6919	x2 = 0.7952	x2 = 0.8992
298.15 K	1.084	1.079	1.072	1.059	1.052	1.042	1.032	1.024	1.013
303.15 K	1.017	1.011	1.005	0.9905	0.9826	0.9704	0.9621	0.952	0.9439
308.15 K	0.957	0.9479	0.9392	0.9236	0.9158	0.9055	0.8959	0.8857	0.8768
313.15 K	0.8974	0.8903	0.8784	0.8659	0.8558	0.8442	0.8346	0.8247	0.8135

O=C[C@H](O)[C@@H](O)[C@H](O)CO + C[N+](C)(C)CCO.[Cl-]
viscosity [mPa·s]
Details	x2 = 0.5	x2 = 0.6	x2 = 0.667
303 K, 101 kPa	34000	–	–
313 K, 101 kPa	11900	–	–
313.2 K, 100 kPa	855.5	1450	3450
318.2 K, 100 kPa	565.8	886.5	1886
323 K, 101 kPa	4740	–	–

COC(=O)CC(=O)OC + CCO
303.15 K, 101 kPa
Details	viscosity [mPa·s]
x1 = 0.0532	0.972
x1 = 0.1129	0.966
x1 = 0.1787	0.978
x1 = 0.2533	0.998
x1 = 0.337	1.037
x1 = 0.4329	1.097
x1 = 0.5426	1.181
x1 = 0.6705	1.314
x1 = 0.8207	1.513

BrCCBr + C1CCCCC1
101.33 kPa
Details	viscosity [mPa·s]
298.15 K, x1 = 0.1283	0.8597
298.15 K, x1 = 0.2453	0.8556
298.15 K, x1 = 0.3514	0.926
298.15 K, x1 = 0.4599	0.9659
298.15 K, x1 = 0.5537	1.009
298.15 K, x1 = 0.6465	1.105
298.15 K, x1 = 0.7406	1.208
298.15 K, x1 = 0.8327	1.311
298.15 K, x1 = 0.91	1.45
308.15 K, x1 = 0.1562	0.7122
308.15 K, x1 = 0.2398	0.7673
308.15 K, x1 = 0.3629	0.8116
308.15 K, x1 = 0.4545	0.8447
308.15 K, x1 = 0.5559	0.9064
308.15 K, x1 = 0.6741	1.021
308.15 K, x1 = 0.7424	1.055
308.15 K, x1 = 0.8334	1.145
308.15 K, x1 = 0.9281	1.286

BrCCBr + Cc1cccc(C)c1
101.33 kPa
Details	viscosity [mPa·s]
298.15 K, x1 = 0.1391	0.6538
298.15 K, x1 = 0.269	0.7069
298.15 K, x1 = 0.3835	0.8095
298.15 K, x1 = 0.4852	0.8843
298.15 K, x1 = 0.5776	1.002
298.15 K, x1 = 0.6789	1.064
298.15 K, x1 = 0.7684	1.191
298.15 K, x1 = 0.8458	1.307
298.15 K, x1 = 0.9257	1.447
308.15 K, x1 = 0.1463	0.587
308.15 K, x1 = 0.2621	0.6362
308.15 K, x1 = 0.3771	0.7044
308.15 K, x1 = 0.4834	0.764
308.15 K, x1 = 0.5853	0.8526
308.15 K, x1 = 0.6796	0.9345
308.15 K, x1 = 0.7697	1.018
308.15 K, x1 = 0.8516	1.143
308.15 K, x1 = 0.9254	1.259

Brc1ccccc1 + C1CCOCC1
viscosity [mPa·s], 101 kPa
Details	x2 = 0.097	x2 = 0.1996	x2 = 0.3053	x2 = 0.4011	x2 = 0.5073
298.15 K	1.05	1.037	1.021	1	0.9753
313.15 K	0.8682	0.8547	0.8377	0.8212	0.7989

C#Cc1ccccc1 + CCCCCOC(C)=O
Details	viscosity [mPa·s]
298.15 K, 101 kPa, x1 = 0.0691	0.791

C1COCCO1 + CCC(C)O
298.15 K, 101 kPa
Details	viscosity [mPa·s]
x1 = 0.0413	2.47
x1 = 0.1256	1.88
x1 = 0.236	1.474
x1 = 0.3042	1.324
x1 = 0.4175	1.173
x1 = 0.5	1.133
x1 = 0.5207	1.092
x1 = 0.5916	1.061
x1 = 0.7413	1.046
x1 = 0.8431	1.071
x1 = 0.9423	1.119

BrCCBr + Cc1ccccc1
101.33 kPa
Details	viscosity [mPa·s]
298.15 K, x1 = 0.1229	0.6433
298.15 K, x1 = 0.2578	0.6736
298.15 K, x1 = 0.348	0.7383
298.15 K, x1 = 0.4549	0.8563
298.15 K, x1 = 0.5548	0.9001
298.15 K, x1 = 0.6537	1.015
298.15 K, x1 = 0.746	1.105
298.15 K, x1 = 0.8331	1.268
298.15 K, x1 = 0.9171	1.381
308.15 K, x1 = 0.1176	0.5499
308.15 K, x1 = 0.2377	0.6
308.15 K, x1 = 0.3568	0.6572
308.15 K, x1 = 0.4489	0.7283
308.15 K, x1 = 0.5524	0.8275
308.15 K, x1 = 0.652	0.9069
308.15 K, x1 = 0.7416	0.9937
308.15 K, x1 = 0.8319	1.111
308.15 K, x1 = 0.9144	1.233

COc1ccccc1O + C1COCCO1
308.15 K, 101 kPa
Details	viscosity [mPa·s]
x2 = 0.1	4.29
x2 = 0.2	4.18
x2 = 0.3	3.795
x2 = 0.4	3.347
x2 = 0.5	2.73
x2 = 0.6	2.231
x2 = 0.7	1.834
x2 = 0.8	1.453
x2 = 0.9	1.172

N#C[S-].[NH4+] + CCn1cc[n+](C)c1.N#C[S-]
viscosity [mPa·s], 100 kPa
Details	298.15 K	303.15 K	308.15 K	313.15 K	318.15 K	323.15 K
x1 = 0.039	25.91	21.97	18.84	16.11	14.28	12.59
x1 = 0.099	29.91	25.16	21.4	18.21	16	14.03
x1 = 0.1395	31.58	26.49	22.47	19.09	16.71	14.62
